The values that follow come from article PMC9705338, “The phycoerythrobilin isomerization activity of MpeV in Synechococcus sp. WH8020 is prevented by the presence of a histidine at position 141 within its phycoerythrin-I β-subunit substrate” (Frontiers in Microbiology, 2022).

Structures are written as SMILES.

In the experiment the target is T1, WHMpeV (MpeV from WH8020) (Synechococcus sp. WH 8020, UniProt Q02178).
T1 construct: His-tagged, in pCDF-Duet, co-expressed in E. coli with RS9916 cpeS, cpeZ, ho1/pebS and a PE beta-subunit
T1 sequence (Q02178 1-301): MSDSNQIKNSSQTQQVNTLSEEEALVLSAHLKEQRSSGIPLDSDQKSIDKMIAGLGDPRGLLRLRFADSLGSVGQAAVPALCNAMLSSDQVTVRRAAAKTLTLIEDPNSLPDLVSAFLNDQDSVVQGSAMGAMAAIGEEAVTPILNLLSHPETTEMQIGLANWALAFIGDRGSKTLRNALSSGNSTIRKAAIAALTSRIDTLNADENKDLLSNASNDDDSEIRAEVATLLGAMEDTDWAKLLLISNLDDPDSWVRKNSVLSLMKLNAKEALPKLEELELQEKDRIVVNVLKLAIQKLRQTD
Kind of experiment: co-expression in E. coli; absorbance, zinc fluorescence, LC-MS-MS of the product subunit. In kind it is cell-based.

Turning to `C=CC1=C(C)[C@@H](CC2=N/C(=C\c3[nH]c(C[C@H]4NC(=O)C(C)=C4C=C)c(C)c3CCC(=O)O)C(CCC(=O)O)=C2C)NC1=O` [phycourobilin], where the note is “covalent, protein-bound product on RSCpeB, WHMpeB and WHCpeB H141L”, the “co-expression in E. coli; absorbance, zinc fluorescence, LC-MS-MS of the product” value was “WHMpeV is capable of isomerizing activity on both WHMpeB and RSCpeB”. For the compound `C=CC1=C(C)C(CC2=NC(=Cc3[nH]c(C=C4NC(=O)C(C)C4=CC)c(C)c3CCC(=O)O)C(CCC(=O)O)=C2C)NC1=O` (centres unmarked) [phycoerythrobilin], the “co-expression in E. coli; absorbance, zinc fluorescence, LC-MS-MS of the product” value (bilin acceptor WHCpeB (ligation without isomerization), RSCpeB or WHMpeB (ligation with isomerization), with RSCpeZ and RSCpeS) is “WHMpeV acts as a PEB lyase-isomerase, doubly ligating PUB on RSCpeB”.
